Assay results taken from US6046186A, “Estrone sulfamate inhibitors of estrone sulfatase, and associated pharmaceutical compositions and methods of use” (SRI International, priority 1997, dated 2000).
Read-outs that look alike come from different tables or passages of the source.

How the values were obtained:
[1] = molecular target: T1, Estrone Sulfatase (Homo sapiens, UniProt P08842); assay: Effects of Inhibitors on Estrone Sulfatase Activity in MCF-7 Cells; format: cell-based
T1 construct: endogenous in cells; host or cells: MCF-7 human breast cancer cells (American Type Culture Collection)
T1 sequence (P08842 22-583): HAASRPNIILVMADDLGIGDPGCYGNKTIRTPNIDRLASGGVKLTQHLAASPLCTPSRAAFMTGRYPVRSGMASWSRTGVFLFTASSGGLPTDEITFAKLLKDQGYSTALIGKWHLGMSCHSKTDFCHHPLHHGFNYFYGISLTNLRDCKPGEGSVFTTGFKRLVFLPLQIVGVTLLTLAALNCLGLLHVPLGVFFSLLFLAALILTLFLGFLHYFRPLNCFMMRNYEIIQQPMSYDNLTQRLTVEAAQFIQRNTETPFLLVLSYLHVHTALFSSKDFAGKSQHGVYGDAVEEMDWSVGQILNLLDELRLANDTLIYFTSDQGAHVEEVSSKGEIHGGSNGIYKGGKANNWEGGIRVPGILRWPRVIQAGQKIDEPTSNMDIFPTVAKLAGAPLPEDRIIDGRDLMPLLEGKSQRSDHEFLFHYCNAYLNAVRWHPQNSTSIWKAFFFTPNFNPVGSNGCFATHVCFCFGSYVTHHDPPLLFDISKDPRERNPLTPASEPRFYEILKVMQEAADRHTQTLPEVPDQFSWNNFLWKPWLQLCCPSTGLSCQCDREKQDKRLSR
Text: A. Effects of Inhibitors on Estrone Sulfatase Activity in MCF-7 Cells
Reagents: MCF-7 human breast cancer cell line was supplied by the American Type Culture Collection, Rockville, MD. Eagle's minimum essential medium (MEM) and fetal calf serum (FCS) were purchased from Sigma Chemical Company, St. Louis, Mo. [4-^14 C]Estrone, [6,7-^3 H]estradiol and [6,7-^3 H](N)estrone sulfate were obtained from New England Nuclear Research Products, Boston, Mass.
Procedure: The method of Duncan et al., Cancer Res. 53:298-303 (1993) was employed. MCF-7 cells were seeded in 60 mm×15 mm culture dishes at 1×10^5 cells/dish and maintained in 4.0 ml of MEM containing 2 mM glutamine and 5% FCS. The cells were incubated at 37° C. in an atmosphere of 5% CO2 /95% air and 100% humidity, with the medium changed every third day. When the cells reached 80% confluency, the intact monolayers were washed once with Earl's balanced salt solution and incubated in 4.0 ml of serum and phenol re-free MEM containing either the substrate (^3 H-estrone sulfate, 7 pmol, 9×10^5 dpm) and inhibitor dissolved in ethanol, or ethanol alone. The fmal ethanol concentration was always below 1%. The incubation continued under the regular conditions for 24 h. At the end of 24 h, 2.0 ml of medium was transferred into separate tubes containing 7×10^3 dpm of ^14 C-estrone. The mixture was vortexed vigorously for 60 s with 5 ml of toluene. After phase separation, 2.0 ml of the organic phase was transferred into a counting vial for scintillation counting. The amount of estrone sulfate hydrolyzed was calculated on the basis of ^3 H counts obtained, with the added ^14 C-estrone counts used to correct for recovery through the extraction procedure.
The cells remaining in each culture dish were washed once with saline and then scraped with 1.0 ml of 0.5 N NaOH into 10×75 mm tubes. The cell pellets in each tube was incubated at 50° C. for 20 min to ensure that digestion was complete and all proteins had became soluble. An aliquot was then taken for protein determination by Lowry's method (Lowry et al., J. Biol. Chem. 193:265-275 (1951)).
The percentage of inhibition was determined by evaluating the quantity of estrone sulfate hydrolyzed with the inhibitor relative to that without the inhibitor.
As a general practice, all available inhibitors were first tested at 100 μM; the ones showing inhibitory effects at that concentration were tested again at various concentrations to obtain the IC50 values.

[2] = system: uterus; assay: Uterotrophic assay (estrogenic activity from uterine weights); format: in vivo, Sprague Dawley rats; parameters: scale not given here; conditions: female rats, test compound alone once daily for 7 days, s.c. or oral gavage; uterine weight vs vehicle control
Text: B. Uterotrophic and antiuterotrophic assays
Sprague Dawley rates are obtained from Simmonsen Laboratories, Gilroy, Calif. Estradiol benzoate may be purchased from Sigma Chemical Co., St. Louis, Mo.
The procedure of Wakeling et al., Endocrinology 99:447453 (1983) is followed. Female Sprague Dawley rats weighing 40-50 grams are used for the experiment. In general, animals are quarantined for 3 days after arrival at the experimental site.
Rats are initially weighed and randomly divided into groups with 5 animals in each group. For the uterotrophic assay, animals are dosed once daily with various doses of test compounds in 0.1 or 1.0 ml of sterile saline via subcutaneous injection or oral gavage, respectively. For the antiuterotrophic assay, animals are dosed once daily with the same doses indicated above plus 0.5 μg/rat of estradiol benzoate alone.
The animals are treated for 7 days. On day 8, animals are weighed and then sacrificed. The uterus of each animal is removed immediately after death and weighed; fat materials are trimmed off prior to weighing.
A comparison of uterine weights from the groups receiving test compound alone with those of the vehicle control group gives the estrogenic activity. Antiestrogenic activity is obtained by comparing the uterine weights from the groups receiving test compound plus estradiol with those of the estradiol control group.

[3] = intact MCF-7 human breast cancer cells, 3H-estrone sulfate substrate, 24 h, 37° C., read-out: Estrone Sulfatase Inhibitory Activity IC50

SMILES	IC50 [1, 3]	Estrogenic Activity [2]	IC50 [1]
C#CC1=CC[C@H]2[C@@H]3CCc4cc(OS(N)(=O)=O)ccc4[C@H]3CC[C@]12C [Compound 5, 19-Norpregna-1,3,5(10),16-tetraen-20-yne-3-O-sulfamate]	0.25 nM	0.40	
CC(=O)C1=CC[C@H]2[C@@H]3CCc4cc(OS(N)(=O)=O)ccc4[C@H]3CC[C@]12C [Compound 7, 19-Norpregna-1,3,5(10),16-tetraen-20-one-3-O-sulfamate]	0.021 nM	0.66	
CC(=O)[C@H]1CC[C@H]2[C@@H]3CCc4cc(OS(N)(=O)=O)ccc4[C@H]3CC[C@]12C [Compound 10, 19-Norpregna-1,3,5(10)trien-20-one-3-O-sulfamate]	2 nM	0	
C/C=C1/CC[C@H]2[C@@H]3CCc4cc(OS(N)(=O)=O)ccc4[C@H]3CC[C@]12C [Compound 13, [17(20)Z]-19-Norpregna-1,3,5(10),17(20)-tetraene-3-O-sulfamate]	0.08 nM	0.05	
CC/C=C1/CC[C@H]2[C@@H]3CCc4cc(OS(N)(=O)=O)ccc4[C@H]3CC[C@]12C [Compound 15, [17(20)Z]-Propylideneestra-1,3,5(10)-triene-3-O-sulfamate]	0.038 nM	0.30	
CCC/C=C1/CC[C@H]2[C@@H]3CCc4cc(OS(N)(=O)=O)ccc4[C@H]3CC[C@]12C [Compound 17, [17(20)Z]-19,21-Dinorchola-1,3,5(10)17(20)-tetraene-3-O-sulfamate]	0.011 nM	0.55	
CC[C@H]1CC[C@H]2[C@@H]3CCc4cc(OS(N)(=O)=O)ccc4[C@H]3CC[C@]12C [Compound 19, 19-Norpregna-1,3,5(10)-triene-3-O-sulfamate]	0.02 nM	0.54	
CCC[C@H]1CC[C@H]2[C@@H]3CCc4cc(OS(N)(=O)=O)ccc4[C@H]3CC[C@]12C [Compound 21, 17β-Propylestra-1,3,5(10)-triene-3-O-sulfamate]	0.034 nM	0	
CCCC[C@H]1CC[C@H]2[C@@H]3CCc4cc(OS(N)(=O)=O)ccc4[C@H]3CC[C@]12C [Compound 23, 19,21-Dinorchola-1,3,5(10)-triene-3-O-sulfamate]	0.096 nM	0.02	
CC/C=C1\CC[C@H]2[C@@H]3CCc4cc(OS(N)(=O)=O)ccc4[C@H]3CC[C@]12C [Compound 28, [17(20)E]-Propylideneestra-1,3,5(10)-triene-3-O-sulfamate]	0.027 nM	0.20	
CCOC(=O)/C=C1/CC[C@H]2[C@@H]3CCc4cc(OS(N)(=O)=O)ccc4[C@H]3CC[C@]12C [Compound 32, Ethyl 3-Sulfamoyloxy-[17(20)Z]-19-norpregna-1,3,5(10),17(20)-tetraen-21-oate]	2.7 nM	0	
CCOC(=O)/C=C1\CC[C@H]2[C@@H]3CCc4cc(OS(N)(=O)=O)ccc4[C@H]3CC[C@]12C [Compound 34, Ethyl 3-Sulfamoyloxy-[17(20)E]-19-norpregna-1,3,5(10),17(20)-tetraen-21-oate]	0.27 nM	0	
C[C@]12CC[C@@H]3c4ccc(OS(N)(=O)=O)cc4CC[C@H]3[C@@H]1CCC2=C(C#N)C#N [Compound 36, 20-Cyano-19-norpregna-1,3,5(10),17(20)-tetraene-21-nitrile-3-O-sulfamate]	0.09 nM	0.44	
CN(C)CCOC/C=C1\CC[C@H]2[C@@H]3CCc4cc(OS(N)(=O)=O)ccc4[C@H]3CC[C@]12C [Compound 39, 21-(2'-N,N-Dimethylaminoethoxy)-[17(20)E]-19-norpregna-1,3,5(10),17(20)-tetraene-3-O-sulfamate]	34 nM	0	
CN(C)CCO[C@H]1CC[C@H]2[C@@H]3CCc4cc(OS(N)(=O)=O)ccc4[C@H]3CC[C@]12C [Compound 44, 17β-(2'-N,N-Dimethylaminoethoxy)estra-1,3,5(10)-triene-3-O-sulfamate]	24 nM	0	
CN(C)CCCO[C@H]1CC[C@H]2[C@@H]3CCc4cc(OS(N)(=O)=O)ccc4[C@H]3CC[C@]12C [Compound 47, 17β-(3'-N,N-Dimethylaminopropoxy)estra-1,3,5(10)-triene-3-O-sulfamate]	23 nM	0.27	
CC(C)(C)[Si](C)(C)O[C@@H]1CC[C@H]2[C@@H]3CCc4cc(OS(N)(=O)=O)ccc4[C@H]3CC[C@]12C [Compound 52, 17α-tert-Butyldimethylsilyloxyestra-1,3,5(10)-triene-3-O-sulfamate]		0	0.31 nM
CN(C)CCO[C@@H]1CC[C@H]2[C@@H]3CCc4cc(OS(N)(=O)=O)ccc4[C@H]3CC[C@]12C [Compound 55, 17α-(2'-N,N-Dimethylaminoethoxy)estra-1,3,5(10)-triene-3-O-sulfamate]	26 nM	0	
CC(=O)O[C@H]1CC[C@H]2[C@@H]3CCc4cc(OS(N)(=O)=O)c(C#N)cc4[C@H]3CC[C@]12C [Compound 59, 2-Cyanoestra-1,3,5(10)-trien-17β-ol-3-O-sulfamate 17β-O-acetate]	0.3 nM	0	
COC(=O)c1cc2c(cc1OS(N)(=O)=O)CC[C@@H]1[C@@H]2CC[C@]2(C)C(=O)CC[C@@H]12 [Compound 65, 2-Methoxycarbonylestra-1,3,5(10)-trien-17-one-3-O-sulfamate]		0	
COc1cc2c(cc1OS(N)(=O)=O)CC[C@@H]1[C@@H]2CC[C@]2(C)C(=O)CC[C@@H]12 [Compound 67, 2-Methoxyestra-1,3,5(10)-trien-17-one-3-O-sulfamate]		0	0.016 nM
C/C=C1/CC[C@H]2[C@@H]3CCc4cc(OS(N)(=O)=O)c(OC)cc4[C@H]3CC[C@]12C [Compound 69, 2-Methoxy-[17(20)Z]-19-norpregna-1,3,5(10),17(20)-tetraene-3-O-sulfamate]	2.5 nM	0	
CC[C@H]1CC[C@H]2[C@@H]3CCc4cc(OS(N)(=O)=O)c(OC)cc4[C@H]3CC[C@]12C [Compound 71, 2-Methoxy-19-norpregna-1,3,5(10)-triene-3-O-sulfamate]	1.5 nM	0	
CN(C)Cc1cc2c(cc1OS(N)(=O)=O)CC[C@@H]1[C@@H]2CC[C@]2(C)C(=O)CC[C@@H]12 [Compound 73, 2-Dimethylaminomethylestra-1,3,5(10)-trien-17-one-3-O-sulfamate]	> 1000 nM	0	
COCc1cc2c(cc1OS(N)(=O)=O)CC[C@@H]1[C@@H]2CC[C@]2(C)C(=O)CC[C@@H]12 [Compound 75, 2-Methoxymethylestra-1,3,5(10)-trien-17-one-3-O-sulfamate]	2 nM	0	
